Data reported in patent US7208176B2, “Drug delivery device containing neuraminidase inhibitor and an H1 antagonist” (Osmotica Corp., priority 2001, dated 2007).

Legend:
[1] = cited from earlier work
in vivo = conditions: po
[2] = cited from earlier work; remark: listed apart in the source

| Structure (SMILES) | absorption and conversion after oral administration ([1]; oral, G. He et al.) | Tmax (in vivo) [h] | half-life (in vivo) [h] | steady-state plasma trough concentrations versus minimum inhibitory concentration ([1]; 75 mg twice daily) | metabolite clearance in renal impairment ([1]; human, in vivo) | absolute bioavailability of the active metabolite ([1]; in vivo, po) | time to maximal concentrations ([1]; in vivo, po) [h] | time until detectable in plasma ([1]; in vivo, po) [min] | accumulation ([1]; in vivo) | apparent half-life ([1]; in vivo) [h] | exposure at steady state, higher in elderly compared with young individuals ([1]; in vivo) | time to steady-state plasma concentrations ([1]; in vivo) [days] | median serum half-life ([2]; Cass et al.) | dose systemically absorbed (median) ([2]; in vivo) [%] | excreted unchanged in the urine ([2]; in vivo) | time to maximum serum concentrations ([2]; in vivo) [h] | tolerability ([2]; in vivo) |
| --- | --- | --- | --- | --- | --- | --- | --- | --- | --- | --- | --- | --- | --- | --- | --- | --- | --- |
| CCOC(=O)C1=C[C@@H](OC(CC)CC)[C@H](NC(C)=O)[C@@H](N)C1 [Oseltamivir, reference compound] | readily absorbed from the gastrointestinal tract and extensively converted to the active metabolite | 3 | 5 to 7 |  |  |  |  |  |  |  |  |  |  |  |  |  |  |
| CCC(CC)O[C@@H]1C=C(C(=O)O)C[C@H](N)[C@H]1NC(C)=O [Active metabolite of oseltamivir, oseltamivir carboxylate] |  | 8 | 14 | remain above the minimum inhibitory concentration for all influenza strains tested | decreases linearly with creatinine clearance | about 80% | 3 to 4 | ≤ 30 | less than 2 fold | 6 to 10 | approximately 25% | ≤ 3 |  |  |  |  |  |
| CC(=O)N[C@H]1[C@H]([C@H](O)[C@H](O)CO)OC(C(=O)O)=C[C@@H]1N=C(N)N [zanamivir, 4-guanidino-2,4-dideoxy-2,3-dehydro-N-acetylneuraminic acid] |  |  |  |  |  |  |  |  |  |  |  |  | 2.5 and 5.05 hours | 10 to 20 | approximately 90% | 1 to 2 | well tolerated at all doses |
